Where “and” joins values, the source holds several entries; their conditions need not be identical. Equal entries are not always repeated.
Columns and labels:
[1] = system: Herpès virus Hominis type 1, souche Bey (HSV1); test: Immediate virucidal action on HSV1, plaque count on Vero cells; type: cell-based; settings: Bardac® 0,02 %; 3 boîtes de culture; J4
Description: Il s'agit d'une souche d'Herpès virus Hominis type 1, souche Bey (HSV1), elle est entretenue sur cellules fibroblastiques humaines ou sur cellules KB et a subi un nombre de passages importants, sur l'un ou l'autre type de cellules.
On utilise un lot viral congelé à -80°C après obtention d'un effet cytopathique ayant atteint au moins 80 % des cellules, sans une centrifugation préalable, qui aurait débarrassé l'inoculum de la majorité des débris cellulaires; en effet, il apparaît que l'infectivité du virus disparaît très rapidement lorsqu'il est extracellulaire, et, en conséquence, on est plus près de la réalité de l'infection in vivo lorsqu'on utilise un lot viral dans lequel des virions peuvent encore se trouver dans des débris cellulaires.
Ce lot a été titré, après répartition en aliquots de 0,5 ml, conservés à -80°C, sur cellules fibroblastiques humaines : • . par dilution de 10 en 10 et inoculations de 8 tubes de cultures par dilution : 10^6/ml; • . par inoculation de cultures en boîtes de Pétri (35 mm) et adjonction de sérum anti-HSV1 dans le surnageant pour neutraliser les virions qui pourraient être libérés dans le milieu liquide, permettant ainsi de compter des plages : 100 à 150 unités formant plages par boîte inoculée avec 0,5 ml d'une solution virale diluée à 10^-4. […]

[2] = system: virus HBV; test: In vivo protection test in ducks (I.V.), inoculum 2.10^7 vge/canard; settings: Bardac® 0,1 %, voie I.V.
From the text: II - Essais in vivo chez le canard (voie I.V.).
• Bardac® 0,02 % (dose 100 fois inférieure à celle qui est efficace in vitro pour le Bardac® seul) - CHG 0,025 % contre un inoculum à 2.10^7 vge/canard protège 3/3 canards (figure 2). • Bardac® 0,1 % (dose 5 fois plus forte que dans une composition conforme à l'invention pour obtenir une protection équivalente) contre un inoculum à 2.10^7 vge/canard (vge = viral genoma equivalent) protège 4/4 canards (figure 3).
La figure 1 correspond à un témoin d'infection : 4/4 canards inoculés avec 2.10^7 vge développent une virémie dont le pic se situe entre 5 et 10 jours.

[3] = system: cellules fibroblastiques humaines; test: Cytotoxicity control of the products on human fibroblast cultures (10 tubes, 3 days); type: cell-based; settings: pur et dilutions 10^-1 à 10^-3, 0,1 ml dans 1 ml
From the text: On réalise des contrôles de cytotoxicité des produits pour les cultures cellulaires utilisées dans les tests, c'est-à-dire les cellules fibroblastiques humaines.
Les cellules sont cultivées en milieu de Dulbecco enrichi en sérum de veau foetal à 10 %; au moment de leur utilisation, les cellules sont lavées et on utilise le même milieu de culture, mais dépourvu de sérum de veau.
Pour chaque produit testé ou chaque composition, on a utilisé 10 tubes de culture cellulaire et après inoculation du produit, les tubes ont été surveillés pendant trois jours.
Chaque produit a été successivement utilisé pur, et aux dilutions 10^-1, 10^-2, 10^-3 et ajouté aux tubes de culture contenant 1 ml de milieu nutritif, sous le volume de 0,1 ml.

[4] = system: S. aureus ATCC 6538; test: Growth inhibition test (DGHM, Essai 2, Tables A-C), 72 h at 37°C; non/A/B/C = without or with inactivating substances A, B, C; type: cell-based, Staphylococcus aureus; settings: for concentration en substance active inhibant la croissance: antiseptique seul
Description: Un autre essai a été réalisé à partir des solutions suivantes : • 100 ml d'une solution à 0,1 % de digluconate de chlorhexidine (pH 6) et • 100 ml d'une solution à 0,1 % de Bardac 22®.
L'activité de ces solutions, seules ou en combinaison a été plus particulièrement testée vis-à-vis de Staphylococcus aureus ATCC 6538, Escherichia coli ATCC 11229 et Candida albicans ATCC 10231.
Les tests ont été réalisés conformément au protocole décrit dans le Chapitre I/2.1 et 2.2 de Richtlinien für die Prüfung und Bewertung chemischer Desinfektionsverfahren der DGHM, Stand 1.1., 1981).
Les Tableaux A, B et C illustrent respectivement l'activité bactéricide et fongicide d'une solution aqueuse à 0,1 % de digluconate de chlorhexidine, d'une solution aqueuse à 0,1 % de Bardac 22® et d'un mélange à part égale des deux composés. Les protocoles dont ces Tableaux illustrent les résultats comprennent une incubation de 72 heures à 37°C et l'utilisation, comme témoins, des substances inactivantes suivantes : A : Tween® 80 3 % + lécithine 0,3 % + cystéine 0,1 %; B : Tween® 80 3 % + saponine 3 % + cystéine 0,1 % + histidine 0,1 %; C : Tween® 80 3 % + lécithine 0,3 % + histidine 0,1 % + thiosulfate de sodium 0,5 %.
Dans ces Tableaux, le signe "+" indique une croissance et le signe "-" l'absence de croissance.

Row | Compound | croissance ([4]; Conc. 0,1 % (vol/vol), A) | croissance ([4]; Conc. 0,1 % (vol/vol), B) | croissance ([4]; Conc. 0,1 % (vol/vol), C) | croissance ([4]; Conc. 0,1 % (vol/vol), non) | croissance ([4]; Conc. 0,05 % (vol/vol), A) | croissance ([4]; Conc. 0,5 % (vol/vol), A) | croissance ([4]; Conc. 0,05 % (vol/vol), B) | croissance ([4]; Conc. 0,5 % (vol/vol), B) | croissance ([4]; Conc. 0,05 % (vol/vol), C) | croissance ([4]; Conc. 0,5 % (vol/vol), C) | croissance ([4]; Conc. 0,05 % (vol/vol), non) | croissance ([4]; Conc. 0,5 % (vol/vol), non) | croissance ([4]; Conc. 1,0 % (vol/vol), A) | croissance ([4]; Conc. 1,0 % (vol/vol), B) | croissance ([4]; Conc. 1,0 % (vol/vol), C) | croissance ([4]; Conc. 1,0 % (vol/vol), non) | croissance ([4]; Conc. 0,00625 % (vol/vol), A) | croissance ([4]; Conc. 0,00625 % (vol/vol), B) | croissance ([4]; Conc. 0,00625 % (vol/vol), C) | croissance ([4]; Conc. 0,00625 % (vol/vol), non) | further results
1 | CCCCCCCCCC[N+](C)(C)CCCCCCCCCC [Bardac®, chlorure de didécyldiméthylammonium] | + | + | + | - | + | + | + | + | + | + | + | - | + | + | + | - | + | + | + | + | Nombre d'unités formant plage par millilitre de virus dilué à 10^-4 [1]: 30/125/45 and 26/17/20; canards protégés [2]: 4/4; toxicité pour les cultures cellulaires ([3]; solution à 0,04 %): non toxique à la dilution 10^-3; croissance ([4]; Conc. 0,0125 % (vol/vol), A): +; croissance ([4]; Conc. 0,0125 % (vol/vol), B): +; croissance ([4]; Conc. 0,0125 % (vol/vol), C): +; croissance ([4]; Conc. 0,0125 % (vol/vol), non): +; croissance ([4]; Conc. 0,025 % (vol/vol), A): +; croissance ([4]; Conc. 0,025 % (vol/vol), B): +; croissance ([4]; Conc. 0,025 % (vol/vol), C): +; croissance ([4]; Conc. 0,025 % (vol/vol), non): +; concentration en substance active inhibant la croissance [4]: 0,0001%
2 | [H]/N=C(\N/C(=N/[H])NCCCCCCNC(=N)NC(=N)Nc1ccc(Cl)cc1)Nc1ccc(Cl)cc1 [Chlorhexidine, digluconate de chlorhexidine, reference compound] | + | + | + | + | + | + | + | + | + | + | + | - | + | + | + | - | + | + | + | + | toxicité pour les cultures cellulaires ([3]; solution à 0,05 %): aucune toxicité; croissance ([4]; Conc. 0,0125 % (vol/vol), A): +; croissance ([4]; Conc. 0,0125 % (vol/vol), B): +; croissance ([4]; Conc. 0,0125 % (vol/vol), C): +; croissance ([4]; Conc. 0,0125 % (vol/vol), non): +; croissance ([4]; Conc. 0,025 % (vol/vol), A): +; croissance ([4]; Conc. 0,025 % (vol/vol), B): +; croissance ([4]; Conc. 0,025 % (vol/vol), C): +; croissance ([4]; Conc. 0,025 % (vol/vol), non): +; concentration en substance active inhibant la croissance [4]: 0,0005%

Source: patent EP0555116B1, “Compositions based on antiseptics and their applications” (HUTCHINSON, priority 1992, dated 1993)
